Data from patent publication US9050347B2, “1,2,4-oxadiazole derivatives as drugs modulating the GLP-1 peptide receptor” (VIVIABIOTECH, S.L., priority 2011, dated 2015).

Legend:
[1] = system: rat insulinoma cells (INS1E cells); test: In vitro insulin secretion assay in INS1E cells; format: cell-based; settings: for enhancement of glucose-dependent insulin release caused by GLP-1 / direct activation of glucose-activated insulin secretion: rat insulinoma cells; for enhancement of glucose-dependent insulin release caused by GLP-1: GLP-1 10 nM, FIG. 3; for direct activation of glucose-activated insulin secretion: compound alone, FIG. 2
Procedure: The insulin secretion studies were performed in INS1E cells cultured in RPMI 1640 medium (Invitrogen, Switzerland) containing 11 mM glucose. The culture medium was supplemented with 10 mM Hepes (pH 7.3), 10% (v/v) heat-inactivated fetal bovine serum (Brunschwig AG, Switzerland), […] b-mercaptoethanol, 1 mM sodium pyruvate, […] penicillin and […] streptomycin (INS medium). Static secretion studies were performed in culture plates with a diameter of 2.5 cm in which the cells were grown until reaching confluence criteria. The in vitro studies allowed identifying compounds with intrinsic capacity to release insulin (FIG. 2) or which enhance the incretin actions of GLP-1 (FIGS. 3, 4 and 5).

[2] = Parenteral glucose overload assay; format: in vivo, male Wistar rats
Procedure: All the in vivo experiments were performed using male Wistar rats with a weight of 200-450 g. The animals were housed in individual cages in a room with controlled temperature (23° C.) and humidity (50%) with a 12/12 light and dark cycle. The animals had water and food ad libitum except in specific experimental procedures. The animals were handled once a day during the two days before the experimental sessions. All the products were dissolved in a mixture of 5% DMSO, 5% Tween 60/90% saline and intraperitoneally administered. The vehicle was 0.9% sterile saline for the parenteral glucose overload.
The parenteral glucose overload assay was performed in male Wistar rats (Harlan, Barcelona) deprived of food for 18 hours. The animals received an injection of sterile saline containing glucose which was administered at the dose of 2 gr/kg in a volume of 2 ml/kg. The plasma glucose levels were measured by means of glucometers in tail blood using reactive strips of glucose oxidase, at times 0, 5, 10, 15, 30, 45, 60 and 120 minutes after the administration of glucose. The animals received an injection of the drugs under study 15 minutes before the administration of intraperitoneal glucose. After measuring the glucose, an analysis under the curve for compound and dose was performed. This analysis allows evaluating the time intensity of the hyperglycemia. […]

SMILES	enhancement of glucose-dependent insulin release caused by GLP-1 [1]	direct activation of glucose-activated insulin secretion [1]	allosteric modulation of insulin secretion stimulated by a fixed concentration of GLP-1 ([1]; insulinoma cells, 0.2 nM GLP-1, increasing compound concentration, FIG. 5)	allosteric modulation of insulin release stimulated by increasing doses of GLP-1 ([1]; insulinoma cells, compound at 0.1 nM, FIG. 4)	physiological response (glycemia) in the parenteral glucose overload test ([2]; rats deprived of food for 18 hours, glucose 2 gr/kg, compound 15 minutes before, FIG. 6)	intensity of the hyperglycemia (area under the curve of the glycemia) ([2]; rats, parenteral glucose overload test, several doses, FIG. 7)
O=C(CCc1ccccc1)[C@@H]1CCCN(Cc2nc(-c3ccc(C(F)(F)F)cc3)no2)C1 [Compound C1, 3-phenyl-1-[(3R)-1-[[3-[4-(trifluoromethyl)phenyl]-1,2,4-oxadiazol-5-yl]methyl]piperidin-3-yl]propan-1-one]	enhance	direct activators	–	–	–	–
CC(=O)NCC[C@@H]1CCCCN1Cc1nc(-c2ccc(C(F)(F)F)cc2)no1 [Compound C3, N-[2-[(2S)-1-[[3-[4-(trifluoromethyl)phenyl]-1,2,4-oxadiazol-5-yl]methyl]piperidin-2-yl]ethyl]acetamide]	enhance	–	–	–	–	–
NC(=O)C1CCN(Cc2nc(-c3ccc(C(F)(F)F)cc3)no2)CC1 [Compound C4, 1[[3-[4-(trifluoromethyl)phenyl]-1,2,4-oxadiazol-5-yl]methyl]piperidin-4-carboxamide]	enhance	direct activators	–	–	–	–
FC(F)(F)c1ccc(-c2noc(CN3CCCC[C@H]3CCc3ccccn3)n2)cc1 [Compound C5, 5-[[(2S)-2-(2-pyridin-2-ylethyl)piperidin-1-yl]methyl]-3-[4-(trifluoromethyl)phenyl]-1,2,4-oxadiazole]	enhance	direct activators	–	–	–	–
FC(F)(F)c1ccc(-c2noc(CN3CCCC(CN4CCOCC4)C3)n2)cc1 (stereo not shown) [Compound C6, 4-[[1[[3-[4-(trifluoromethyl)phenyl]-1,2,4-oxadiazol-5-yl]methyl]piperidin-3-yl]methyl]morpholine]	enhance	direct activators	enhances in a dose-dependent manner	enhances	improves the physiological response	induces in a dose-dependent manner a reduction of the intensity of the hyperglycemia
